Data reported in the supplement of paper PMC11061612.

Experiments:
Experiment in all cases: combination Emax (second highest fraction inhibited in the dose matrix, 72 h); higher = more inhibition; extreme values may be limits of the assay
NB10 (Neuroblastoma) = system: NB10 (Neuroblastoma)
Outline: (§1)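 Cell lines in DMEM/F12 or RPMI with 10% FBS were plated in 1536-well plates, held 24 hours at 37°C, 5% CO2, then given two-drug dose matrices for 72 hours (DMSO typically 0.2%). Viability was read by CellTiter-Glo 2.0 luminescence and scaled as inhibition from 0 (vehicle wells) to 1 (blank wells). Combination Emax is the second-highest inhibition in the matrix; Bliss excess is observed combination effect minus expected EA + EB − EA·EB, EA and EB being single-agent effects.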

T98G (Glioblastoma) = system: T98G (Glioblastoma)
Outline: as §1

[1] = system: NCI-H2085 (Non-Small Cell Lung Carcinoma)
Outline: as §1

[2] = system: SK-ES-1 (Ewing's Sarcoma)
Outline: as §1

[3] = system: RO82-W-1 (Thyroid Gland Carcinoma)
Outline: as §1

[4] = system: Ramos-2G6-4C10 (Burkitt's Lymphoma)
Outline: as §1

[5] = system: KURAMOCHI (Ovarian Carcinoma)
Outline: as §1

HOS (Osteosarcoma) = system: HOS (Osteosarcoma)
Outline: as §1

[6] = system: ME-1 (Acute Myeloid Leukemia)
Outline: as §1

[7] = system: DEL (T-Cell Non-Hodgkin's Lymphoma)
Outline: as §1

[8] = system: Hs-578-T (Breast Carcinoma)
Outline: as §1

ES4 (Ewing's Sarcoma) = system: ES4 (Ewing's Sarcoma)
Outline: as §1

[9] = system: CCRF-CEM (T-Lymphoblastic Leukemia)
Outline: as §1

42-MG-BA (Glioblastoma) = system: 42-MG-BA (Glioblastoma)
Outline: as §1

[10] = system: HT-1376 (Bladder Carcinoma)
Outline: as §1

[11] = system: Daoy (Other Solid Carcinomas)
Outline: as §1

[12] = system: UM-UC-3 (Bladder Carcinoma)
Outline: as §1

[13] = system: HO-1-N-1 (Oral Cavity Carcinoma)
Outline: as §1

[14] = system: HCC-78 (Lung Adenocarcinoma)
Outline: as §1

[15] = system: TCCSUP (Bladder Carcinoma)
Outline: as §1

SMILES	combination Emax (NB10 (Neuroblastoma))	combination Emax (T98G (Glioblastoma))	combination Emax [1]	combination Emax [2]	combination Emax [3]	combination Emax [4]	combination Emax [5]	combination Emax (HOS (Osteosarcoma))	combination Emax [6]	combination Emax [7]	combination Emax [8]	combination Emax (ES4 (Ewing's Sarcoma))	combination Emax [9]	combination Emax (42-MG-BA (Glioblastoma))	combination Emax [10]	combination Emax [11]	combination Emax [12]	combination Emax [13]	combination Emax [14]	combination Emax [15]
CN(C)CCCOc1ccc(-c2ccc3ncc4c(c3c2)n(C2CCOCC2)c(=O)n4C)cn1 [AZD0156] + C=CCn1c(=O)c2cnc(Nc3ccc(N4CCN(C)CC4)cc3)nc2n1-c1cccc(C(C)(C)O)n1 [AZD1775] (first compound max 1 µM, partner max 1 µM)	0.586	0.657	0.6	0.903	0.38	0.995	0.678	0.24	0.413	1	0.784	0.438	1	0.29	0.294	0.847	0.264	0.348	0.313	0.356
CN(C)CCCOc1ccc(-c2ccc3ncc4c(c3c2)n(C2CCOCC2)c(=O)n4C)cn1 [AZD0156] + CCN(CCO)CCCOc1ccc2c(Nc3cc(CC(=O)Nc4cccc(F)c4)[nH]n3)ncnc2c1 [AZD2811] (first compound max 1 µM, 7x7, partner max 1 µM)	0.315	0.33	0.547	0.952	0.308	0.528	0.115	0.0916	0.2	0.684	0.565	0.159	0.983	0.444	0.0989	0.303	0.155	0.74	0.159	0.111
CN(C)CCCOc1ccc(-c2ccc3ncc4c(c3c2)n(C2CCOCC2)c(=O)n4C)cn1 [AZD0156] + C[C@@H]1COCCN1C2=NC(=NC(=C2)C3(CC3)[S@](=N)(=O)C)C4=C5C=CNC5=NC=C4 [AZD6738] (first compound max 1 µM, 7x7, partner max 10 µM)	0.87	0.855	0.824	0.855	0.34	0.981	0.597	0.706	0.394	0.988	0.885	0.844	0.99	0.701	0.655	0.848	0.475	0.809	0.613	0.591
CN(C)CCCOc1ccc(-c2ccc3ncc4c(c3c2)n(C2CCOCC2)c(=O)n4C)cn1 [AZD0156] + O=C(c1cc(Cc2n[nH]c(=O)c3ccccc23)ccc1F)N1CCN(C(=O)C2CC2)CC1 [Olaparib] (first compound max 3 µM, partner max 3 µM)	0.593	0.287	0.224	0.804	0.313	0.745	0.152	0.241	0.224	0.78	0.519	0.658	0.46	0.402	0.115	0.427	0.289	0.346	0.448	0.279
C=CCn1c(=O)c2cnc(Nc3ccc(N4CCN(C)CC4)cc3)nc2n1-c1cccc(C(C)(C)O)n1 [AZD1775] + C1CN(CCC1(C(=O)N[C@@H](CCO)C2=CC=C(C=C2)Cl)N)C3=NC=NC4=C3C=CN4 [Capivasertib] (first compound max 3 µM, partner max 3 µM)	0.892	0.785	0.631	0.883	0.471	0.99	0.625	0.831	0.685	1	0.841	0.521	1	0.733	0.355	0.999	0.464	0.781	0.626	0.787
C=CCn1c(=O)c2cnc(Nc3ccc(N4CCN(C)CC4)cc3)nc2n1-c1cccc(C(C)(C)O)n1 [AZD1775] + C[C@@H]1COCCN1C2=NC(=NC(=C2)C3(CC3)[S@](=N)(=O)C)C4=C5C=CNC5=NC=C4 [AZD6738] (first compound max 1 µM, partner max 10 µM)	0.879	0.873	0.912	0.926	0.445	1	0.743	0.911	0.51	1	0.921	0.826	1	0.763	0.67	0.944	0.682	0.883	0.756	0.755
C=CCn1c(=O)c2cnc(Nc3ccc(N4CCN(C)CC4)cc3)nc2n1-c1cccc(C(C)(C)O)n1 [AZD1775] + O=C(c1cc(Cc2n[nH]c(=O)c3ccccc23)ccc1F)N1CCN(C(=O)C2CC2)CC1 [Olaparib] (first compound max 1 µM, partner max 10 µM)	0.682	0.675	0.566	0.954	0.405	1	0.699	0.417	0.455	0.999	0.839	0.563	1	0.278	0.425	0.882	0.326	0.437	0.377	0.461
CCN(CCO)CCCOc1ccc2c(Nc3cc(CC(=O)Nc4cccc(F)c4)[nH]n3)ncnc2c1 [AZD2811] + C=CCn1c(=O)c2cnc(Nc3ccc(N4CCN(C)CC4)cc3)nc2n1-c1cccc(C(C)(C)O)n1 [AZD1775] (first compound max 1 µM, partner max 1 µM)	0.466	0.608	0.688	0.971	0.356	0.957	0.646	0.298	0.299	1	0.775	0.377	1	0.522	0.333	0.827	0.258	0.848	0.327	0.352
CCN(CCO)CCCOc1ccc2c(Nc3cc(CC(=O)Nc4cccc(F)c4)[nH]n3)ncnc2c1 [AZD2811] + C[C@@H]1COCCN1C2=NC(=NC(=C2)C3(CC3)[S@](=N)(=O)C)C4=C5C=CNC5=NC=C4 [AZD6738] (first compound max 1 µM, 7x7, partner max 10 µM)	0.771	0.799	0.844	0.968	0.405	0.911	0.569	0.652	0.516	0.99	0.839	0.666	1	0.568	0.54	0.798	0.429	0.858	0.595	0.604
CCN(CCO)CCCOc1ccc2c(Nc3cc(CC(=O)Nc4cccc(F)c4)[nH]n3)ncnc2c1 [AZD2811] + O=C(c1cc(Cc2n[nH]c(=O)c3ccccc23)ccc1F)N1CCN(C(=O)C2CC2)CC1 [Olaparib] (first compound max 1 µM, 7x7, partner max 10 µM)	0.386	0.453	0.62	0.954	0.195	0.295	0.237	0.0874	0.394	0.823	0.622	0.47	1	0.464	0.218	0.454	0.305	0.824	0.206	0.268
COc1nnc2ccc(N3CCC(c4ccc(OCCN5CCN(C)C(=O)[C@H]5C)cc4)CC3)nn12 [AZD5153] + CN(CC[C@H](CSC1=CC=CC=C1)NC2=C(C=C(C=C2)S(=O)(=O)NC(=O)C3=CC=C(C=C3)N4CCC(CC4)[C@H](C5=CC=CC=C5C6=CC=C(C=C6)Cl)O)S(=O)(=O)C(F)(F)F)CCO [AZD4320] (first compound max 1 µM, 7x7, partner max 1 µM)				0.871						0.844		0.795		0.868		0.627				0.297
Cc1c2c(nn1C)CSCc1cc(n(C)n1)CSc1cc(c3ccccc3c1)OCCCc1c(C(=O)O)n(C)c3c-2c(Cl)ccc13 [AZD5991] + Cn1cnc2c(F)c(Nc3ccc(Br)cc3Cl)c(C(=O)NOCCO)cc21 [Selumetinib] (first compound max 1 µM, 7x7, partner max 3 µM)	0.396	0.249	0.631	0.809	0.311	0.998	0.485	0.229	0.906	1	0.54		0.325	0.988	0.272	0.278	0.28	0.919	0.253	0.227
CS(=O)(=O)CCNCc1ccc(-c2ccc3ncnc(Nc4ccc(OCc5cccc(F)c5)c(Cl)c4)c3c2)o1 [Lapatinib] + Cn1cnc2c(F)c(Nc3ccc(Br)cc3Cl)c(C(=O)NOCCO)cc21 [Selumetinib] (first compound max 10 µM, 7x7, partner max 10 µM)	0.481	0.25	0.341		0.193	0.347	0.58	0.332	0.397		0.69		0.46		0.287		0.306	0.956	0.228	
CS(=O)(=O)CCNCc1ccc(-c2ccc3ncnc(Nc4ccc(OCc5cccc(F)c5)c(Cl)c4)c3c2)o1 [Lapatinib] + NC1(c2ccc(-c3nc4ccn5c(=O)[nH]nc5c4cc3-c3ccccc3)cc2)CCC1 [MK-2206] (first compound max 10 µM, 7x7, partner max 10 µM)	0.903	0.908	0.587		0.24	0.954	0.763	0.561	0.301		0.936		0.892		0.177		0.253	0.963	0.264	
